Laboratory results as given in US8541543B2, “Peptides specific for hepatocellular carcinoma cells and applications thereof” (Academia Sinica, priority 2007, dated 2013).

Experiments:
[1] = tested on: advanced HCC; conditions: HCC (ref 36); cited from earlier work
[2] = tested on: Mahlavu-derived HCC xenografts; test: In vivo peptide competitive inhibition of PC94 tumor binding; parameters: species or system SCID mice; conditions: 100 μg peptide co-injected with PC94, FIG. 3B
Method: (§1) SCID mice (4-6 weeks old) were injected subcutaneously (s.c.) into the dorsal-lateral flank with 5×10^6 Mahlavu cells. Mice bearing Mahlavu-derived xenografts (500 mm^3) were injected intravenously (i.v.) with 2×10^9 pfu of PC94 or control phage. After perfusion, the organs (brain, heart, and lungs) and tumor tissue were removed, washed with cold PBS and weighed. The phage bound to the tumor tissue and organs were rescued by Escherichia coli ER2738 culture. The eluted phage particles were titrated on LB/IPTG/X-Gal plates. In peptide competitive inhibition experiments, 2×10^9 pfu of PC94 phage was co-injected with 100 μg of SP94 peptide or the control peptide. The tissue distribution of targeting phages in the tumor-bearing mice was examined by immunohistochemical staining. The tissue sections were incubated with mouse anti-M13 antibody, followed by incubation with biotinylated horse anti-mouse antibody (ABC kit; Vector Laboratories, Burlingame, Calif., USA) and washed with PBS, then immersed with ABC reagent. The sections were immersed in DAB solution plus 0.01% hydrogen peroxide, washed with PBS and mounted with 50% glycerol in PBS.

[3] = tested on: Mahlavu-derived HCC xenografts; test: Immunohistochemical tissue distribution of targeting phages in tumor-bearing mice; format: in vivo, SCID mice; conditions: FIG. 3C, j
Method: as §1

COc1cccc2c1C(=O)c1c(O)c3c(c(O)c1C2=O)C[C@@](O)(C(=O)CO)C[C@@H]3O[C@H]1C[C@H](N)[C@H](O)[C@H](C)O1 [doxorubicin]
overall response rate [1]: 18%

FPWFPLPSPYGN [control peptide]
inhibition of PC94 binding to tumor tissue [2]: no such inhibitory effect

SFSIIHTPILPL [SP94]
immuno-reactivity of tumor tissue when PC94 co-injected with peptide [3]: no immuno-reactivity was found in the tumor tissue
